Data published in paper PMC12656268, “Venom Peptides Across Asian and American Tarantulas Utilize Dual Pharmacology to Target Activation and Fast Inactivation of Voltage-Gated Sodium Channels” (Toxins, 2025).
Positions of bridges follow the written chain, without caps; N, C: chain ends. Residues, ends and D or L forms follow the SMILES beside them.

Legend:
Type in all cases: cell-based
[1] = target: hNaV1.7 (Homo sapiens, UniProt Q15858); assay: hNaV1.7 peak current inhibition, automated whole-cell patch clamp (QPatch 16X); settings: for IC50: HEK293 + β1, holding −80 mV, 20 ms step to 0 mV from −120 mV 200 ms prepulse, 5 min incubation, mean ± SEM, 3 to 9 independent experiments, read-out: IC50, inhibition of peak current, NaV1.7
Procedure: (§1) Unless otherwise specified, all cell culture reagents were obtained from Life Technologies (Carlsbad, CA, USA). The human neuroblastoma cell line SH-SY5Y (ATCC CRL-2266; Manassas, VA, USA) was maintained in RPMI medium supplemented with 15% fetal bovine serum (FBS) and 2 mM L-glutamine. HEK293 cells stably expressing human NaV channel isoforms together with the β1 auxiliary subunit (SB Drug Discovery, Glasgow, UK) were propagated in Minimal Essential Medium (MEM; Sigma-Aldrich, St. Louis, MO, USA) containing 10% FBS, 100 U/mL penicillin, 100 µg/mL streptomycin, 2 mM L-glutamine, and selective antibiotics (blasticidin, geneticin, and zeocin) at concentrations recommended by the supplier. […]
(§2) Sodium channel currents were recorded from HEK293 cells expressing human NaV isoforms together with the β1 auxiliary subunit (SB Drug Discovery, Glasgow, UK) using the QPatch 16X automated whole-cell patch-clamp platform (Sophion Bioscience A/S, Ballerup, Denmark). […] For determining the potency of Oa1a peptides to inhibit peak current, the maximum peak current within the 20 ms at 0 mV was measured. For determining the potency of Oa1a-NH2 to slow fast inactivation, peak current values were measured at 20 ms of the 0 mV depolarization step. […]
(§3) For calcium influx experiments, bioactivity comparisons between venom fractions and controls were based on the difference between the maximal and minimal fluorescence intensity values obtained from single-replicate assays. […] Reversibility and dissociation kinetics were analyzed by fitting data with a single-phase exponential decay model, while voltage-dependence of steady-state activation and inactivation parameters were derived from Boltzmann sigmoid fits of normalized conductance (G/Gmax) or current (I/Imax) values to determine the half-activation or half-inactivation voltages (V50). Data are expressed as mean ± SEM, where n represents the number of individual cells analyzed.

[2] = target: hNaV1.5 (Homo sapiens, UniProt Q14524); assay: hNaV1.5 peak current inhibition, automated whole-cell patch clamp (QPatch 16X); settings: for IC50: HEK293 + β1, holding −80 mV, 20 ms step to 0 mV from −120 mV 200 ms prepulse, 5 min incubation, mean ± SEM, 3 to 9 independent experiments, read-out: IC50, inhibition of peak current, NaV1.5
Sequence of hNaV1.5 (Q14524 whole entry): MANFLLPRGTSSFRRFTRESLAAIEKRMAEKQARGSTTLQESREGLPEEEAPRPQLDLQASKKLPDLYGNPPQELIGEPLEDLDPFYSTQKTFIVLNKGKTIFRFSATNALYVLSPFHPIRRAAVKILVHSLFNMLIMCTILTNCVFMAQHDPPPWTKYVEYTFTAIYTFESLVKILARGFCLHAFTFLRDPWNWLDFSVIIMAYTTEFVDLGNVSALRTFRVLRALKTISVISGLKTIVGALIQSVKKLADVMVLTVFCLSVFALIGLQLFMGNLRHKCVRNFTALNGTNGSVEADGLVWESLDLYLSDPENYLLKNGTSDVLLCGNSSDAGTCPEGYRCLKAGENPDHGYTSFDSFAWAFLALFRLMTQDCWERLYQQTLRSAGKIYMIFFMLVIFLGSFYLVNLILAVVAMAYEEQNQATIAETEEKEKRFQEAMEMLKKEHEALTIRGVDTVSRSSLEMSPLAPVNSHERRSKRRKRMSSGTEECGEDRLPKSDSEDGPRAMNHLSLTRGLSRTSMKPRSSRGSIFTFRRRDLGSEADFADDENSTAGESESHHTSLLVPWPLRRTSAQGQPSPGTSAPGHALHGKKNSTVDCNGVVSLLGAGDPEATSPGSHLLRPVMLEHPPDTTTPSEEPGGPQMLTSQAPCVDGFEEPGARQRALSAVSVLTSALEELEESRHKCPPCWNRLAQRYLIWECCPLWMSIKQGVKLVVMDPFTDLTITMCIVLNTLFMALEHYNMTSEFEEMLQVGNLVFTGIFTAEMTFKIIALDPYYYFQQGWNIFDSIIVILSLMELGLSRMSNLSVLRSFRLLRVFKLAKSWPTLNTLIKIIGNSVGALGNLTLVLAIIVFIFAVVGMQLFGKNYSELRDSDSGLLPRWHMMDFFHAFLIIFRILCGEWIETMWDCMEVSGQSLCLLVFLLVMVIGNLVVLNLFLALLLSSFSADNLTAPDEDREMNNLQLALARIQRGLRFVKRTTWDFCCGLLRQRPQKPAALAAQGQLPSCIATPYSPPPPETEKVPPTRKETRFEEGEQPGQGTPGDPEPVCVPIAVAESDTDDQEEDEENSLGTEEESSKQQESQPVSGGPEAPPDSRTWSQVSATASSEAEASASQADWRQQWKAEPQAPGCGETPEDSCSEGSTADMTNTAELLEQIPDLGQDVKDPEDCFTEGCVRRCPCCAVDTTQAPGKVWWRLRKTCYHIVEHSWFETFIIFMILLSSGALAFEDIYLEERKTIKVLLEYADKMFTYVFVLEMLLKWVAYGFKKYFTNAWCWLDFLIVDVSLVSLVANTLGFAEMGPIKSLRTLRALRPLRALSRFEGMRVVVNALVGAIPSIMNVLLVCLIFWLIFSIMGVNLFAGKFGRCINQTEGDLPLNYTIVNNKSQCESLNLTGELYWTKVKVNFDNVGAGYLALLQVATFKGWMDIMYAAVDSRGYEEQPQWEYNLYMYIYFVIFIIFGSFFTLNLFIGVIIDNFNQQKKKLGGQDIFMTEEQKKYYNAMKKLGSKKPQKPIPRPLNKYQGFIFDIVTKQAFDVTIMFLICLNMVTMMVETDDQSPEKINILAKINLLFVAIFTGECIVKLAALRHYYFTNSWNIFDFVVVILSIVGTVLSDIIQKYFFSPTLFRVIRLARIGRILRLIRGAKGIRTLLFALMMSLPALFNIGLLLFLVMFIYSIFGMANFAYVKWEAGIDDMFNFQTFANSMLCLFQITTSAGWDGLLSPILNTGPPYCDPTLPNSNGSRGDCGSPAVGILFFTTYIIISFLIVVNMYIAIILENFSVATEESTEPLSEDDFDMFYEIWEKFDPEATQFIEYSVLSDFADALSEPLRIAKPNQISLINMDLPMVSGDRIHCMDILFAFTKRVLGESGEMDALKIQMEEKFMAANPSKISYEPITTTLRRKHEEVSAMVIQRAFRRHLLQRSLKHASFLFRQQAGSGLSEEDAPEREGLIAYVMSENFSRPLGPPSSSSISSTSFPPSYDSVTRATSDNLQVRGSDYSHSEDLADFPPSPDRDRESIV
Procedure: as §1, §2, §3

[3] = target: hNaV1.1 (Homo sapiens, UniProt P35498); assay: hNaV1.1 peak current inhibition, automated whole-cell patch clamp (QPatch 16X); settings: for IC50: HEK293 + β1, holding −80 mV, 20 ms step to 0 mV from −120 mV 200 ms prepulse, 5 min incubation, mean ± SEM, 3 to 9 independent experiments, read-out: IC50, inhibition of peak current, NaV1.1
Procedure: as §1, §2, §3

[4] = target: hNaV1.6 (Homo sapiens, UniProt Q9UQD0); assay: hNaV1.6 peak current inhibition, automated whole-cell patch clamp (QPatch 16X); settings: for IC50: HEK293 + β1, holding −80 mV, 20 ms step to 0 mV from −120 mV 200 ms prepulse, 5 min incubation, mean ± SEM, 3 to 9 independent experiments, read-out: IC50, inhibition of peak current, NaV1.6
Procedure: as §1, §2, §3

[5] = target: hNaV1.4 (Homo sapiens, UniProt P35499); assay: hNaV1.4 peak current inhibition, automated whole-cell patch clamp (QPatch 16X); settings: for IC50: HEK293 + β1, holding −80 mV, 20 ms step to 0 mV from −120 mV 200 ms prepulse, 5 min incubation, mean ± SEM, 3 to 9 independent experiments, read-out: IC50, inhibition of peak current, NaV1.4
Sequence of hNaV1.4 (P35499 whole entry): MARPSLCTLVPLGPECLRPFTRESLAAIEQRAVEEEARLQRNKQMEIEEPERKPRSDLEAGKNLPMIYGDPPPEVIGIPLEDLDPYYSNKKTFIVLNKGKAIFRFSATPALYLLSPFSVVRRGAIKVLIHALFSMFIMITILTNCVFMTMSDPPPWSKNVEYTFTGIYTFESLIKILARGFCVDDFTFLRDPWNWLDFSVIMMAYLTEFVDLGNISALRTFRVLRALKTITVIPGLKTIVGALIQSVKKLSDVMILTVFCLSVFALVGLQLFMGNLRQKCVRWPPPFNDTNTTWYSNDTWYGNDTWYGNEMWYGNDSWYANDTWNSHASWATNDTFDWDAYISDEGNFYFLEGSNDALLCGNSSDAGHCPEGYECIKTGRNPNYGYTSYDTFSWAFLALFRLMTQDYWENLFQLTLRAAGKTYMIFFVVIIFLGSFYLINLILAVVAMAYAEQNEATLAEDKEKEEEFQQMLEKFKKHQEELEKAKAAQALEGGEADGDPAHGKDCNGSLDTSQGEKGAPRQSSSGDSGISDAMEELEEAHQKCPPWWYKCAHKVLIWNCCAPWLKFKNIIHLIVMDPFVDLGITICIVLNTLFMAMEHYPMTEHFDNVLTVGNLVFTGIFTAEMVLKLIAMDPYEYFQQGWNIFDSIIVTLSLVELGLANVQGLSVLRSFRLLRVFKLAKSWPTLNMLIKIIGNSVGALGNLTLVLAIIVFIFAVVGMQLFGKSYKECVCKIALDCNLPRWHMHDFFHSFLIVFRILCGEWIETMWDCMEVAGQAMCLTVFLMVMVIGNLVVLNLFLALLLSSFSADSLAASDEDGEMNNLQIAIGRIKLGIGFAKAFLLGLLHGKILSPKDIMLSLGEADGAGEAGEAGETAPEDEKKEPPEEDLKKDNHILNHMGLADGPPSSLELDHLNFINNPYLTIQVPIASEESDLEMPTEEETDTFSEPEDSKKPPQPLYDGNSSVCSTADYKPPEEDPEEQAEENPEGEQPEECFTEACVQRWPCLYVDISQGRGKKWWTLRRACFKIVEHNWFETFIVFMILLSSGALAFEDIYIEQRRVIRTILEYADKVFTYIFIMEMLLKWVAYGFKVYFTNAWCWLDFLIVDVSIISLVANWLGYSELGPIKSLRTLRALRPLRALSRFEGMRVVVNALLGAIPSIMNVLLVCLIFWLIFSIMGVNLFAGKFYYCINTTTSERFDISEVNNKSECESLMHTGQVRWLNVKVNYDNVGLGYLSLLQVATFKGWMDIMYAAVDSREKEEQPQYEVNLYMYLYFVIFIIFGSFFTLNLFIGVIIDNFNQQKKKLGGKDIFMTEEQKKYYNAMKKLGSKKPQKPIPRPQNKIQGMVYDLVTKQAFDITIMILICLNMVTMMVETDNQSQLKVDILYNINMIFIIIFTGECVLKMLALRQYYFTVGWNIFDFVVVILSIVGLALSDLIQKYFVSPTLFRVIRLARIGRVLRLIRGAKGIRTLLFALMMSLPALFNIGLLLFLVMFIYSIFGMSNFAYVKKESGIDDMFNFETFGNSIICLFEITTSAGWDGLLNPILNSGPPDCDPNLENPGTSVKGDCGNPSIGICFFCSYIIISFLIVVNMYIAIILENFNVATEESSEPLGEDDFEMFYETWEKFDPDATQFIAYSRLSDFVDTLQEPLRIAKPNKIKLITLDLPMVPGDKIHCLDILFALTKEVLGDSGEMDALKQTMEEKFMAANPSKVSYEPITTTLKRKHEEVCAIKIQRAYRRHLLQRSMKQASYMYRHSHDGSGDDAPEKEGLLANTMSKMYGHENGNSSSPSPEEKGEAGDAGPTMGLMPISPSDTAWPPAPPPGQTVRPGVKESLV
Sequence of hNaV1.4 (Q07699 19-218, further chain): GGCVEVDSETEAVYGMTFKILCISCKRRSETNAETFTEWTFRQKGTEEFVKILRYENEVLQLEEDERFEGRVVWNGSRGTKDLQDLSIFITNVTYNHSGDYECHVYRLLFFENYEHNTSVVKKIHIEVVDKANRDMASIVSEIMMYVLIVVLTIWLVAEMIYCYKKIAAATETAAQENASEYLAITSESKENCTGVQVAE
Procedure: as §1, §2, §3

[6] = target: hNaV1.3 (Homo sapiens, UniProt Q9NY46); assay: hNaV1.3 peak current inhibition, automated whole-cell patch clamp (QPatch 16X); settings: for IC50: HEK293 + β1, holding −80 mV, 20 ms step to 0 mV from −120 mV 200 ms prepulse, 5 min incubation, mean ± SEM, 3 to 9 independent experiments, read-out: IC50, inhibition of peak current, NaV1.3
Procedure: as §1, §2, §3

CC(C)C[C@@H]1NC(=O)[C@H](Cc2ccccc2)NC(=O)[C@H](Cc2ccc(O)cc2)NC(=O)[C@H](CCCNC(=N)N)NC(=O)[C@@H](NC(=O)[C@@H](N)CCC(=O)O)CSSC[C@@H]2NC(=O)[C@@H]3CSSC[C@@H](C(=O)N[C@H](C(=O)N[C@@H](Cc4c[nH]c5ccccc45)C(=O)N[C@@H](CC(=O)O)C(=O)N[C@@H](Cc4c[nH]c5ccccc45)C(=O)N[C@H](C(=O)N[C@@H](Cc4ccccc4)C(=O)O)[C@@H](C)O)C(C)C)NC(=O)[C@H](Cc4c[nH]c5ccccc45)NC(=O)[C@H](CCC(N)=O)NC(=O)[C@H](Cc4c[nH]cn4)NC(=O)[C@H](CCCCN)NC(=O)[C@H](CC(N)=O)NC(=O)[C@H](Cc4c[nH]cn4)NC(=O)[C@H](CSSC[C@H](NC(=O)CNC(=O)CNC1=O)C(=O)N[C@@H](CO)C(=O)N[C@@H](CCC(N)=O)C(=O)NCC(=O)N[C@@H](CCC(=O)O)C(=O)N[C@@H](CCCCN)C(=O)N3)NC(=O)[C@H](C(C)C)NC(=O)[C@H](CC(C)C)NC(=O)[C@H](Cc1c[nH]cn1)NC(=O)[C@H](CCC(=O)O)NC2=O [sOa1a-OH] (H-ECRYFLGGCSQGEKCCEHLVCHNKHQWCVWDWTF-OH; disulfide 2-16, 9-21, 15-28; N-terminus assumed)
IC50 [1]: 410 ± 23 nM | Ratio OH/NH2 (IC50 sOa1a-OH / IC50 sOa1a-NH2), NaV1.7 ([1]; ratio of IC50 values): 16 | IC50 [2]: 1270 ± 22 nM | Ratio OH/NH2 (IC50 sOa1a-OH / IC50 sOa1a-NH2), NaV1.5 ([2]; ratio of IC50 values): 6.6 | IC50 [3]: 274 ± 18 nM | Ratio OH/NH2 (IC50 sOa1a-OH / IC50 sOa1a-NH2), NaV1.1 ([3]; ratio of IC50 values): 16 | IC50 [4]: 568 ± 38 nM | Ratio OH/NH2 (IC50 sOa1a-OH / IC50 sOa1a-NH2), NaV1.6 ([4]; ratio of IC50 values): 2.6 | IC50 [5]: > 3000 nM | Activity on NaV1.4 (in words) ([5]; tested at up to 3 μM): no activity | IC50 [6]: > 3000 nM | Activity on NaV1.3 (in words) ([6]; tested at up to 3 μM): no activity

CC(C)C[C@@H]1NC(=O)[C@H](Cc2ccccc2)NC(=O)[C@H](Cc2ccc(O)cc2)NC(=O)[C@H](CCCNC(=N)N)NC(=O)[C@@H](NC(=O)[C@@H](N)CCC(=O)O)CSSC[C@@H]2NC(=O)[C@@H]3CSSC[C@@H](C(=O)N[C@H](C(=O)N[C@@H](Cc4c[nH]c5ccccc45)C(=O)N[C@@H](CC(=O)O)C(=O)N[C@@H](Cc4c[nH]c5ccccc45)C(=O)N[C@H](C(=O)N[C@@H](Cc4ccccc4)C(N)=O)[C@@H](C)O)C(C)C)NC(=O)[C@H](Cc4c[nH]c5ccccc45)NC(=O)[C@H](CCC(N)=O)NC(=O)[C@H](Cc4c[nH]cn4)NC(=O)[C@H](CCCCN)NC(=O)[C@H](CC(N)=O)NC(=O)[C@H](Cc4c[nH]cn4)NC(=O)[C@H](CSSC[C@H](NC(=O)CNC(=O)CNC1=O)C(=O)N[C@@H](CO)C(=O)N[C@@H](CCC(N)=O)C(=O)NCC(=O)N[C@@H](CCC(=O)O)C(=O)N[C@@H](CCCCN)C(=O)N3)NC(=O)[C@H](C(C)C)NC(=O)[C@H](CC(C)C)NC(=O)[C@H](Cc1c[nH]cn1)NC(=O)[C@H](CCC(=O)O)NC2=O [sOa1a-NH2] (H-ECRYFLGGCSQGEKCCEHLVCHNKHQWCVWDWTF-NH2; disulfide 2-16, 9-21, 15-28; N-terminus assumed)
IC50 [1]: 25 ± 0.4 nM | IC50 [2]: 192 ± 4 nM | IC50 [3]: 17 ± 1 nM | IC50 [4]: 223 ± 18 nM | IC50 [5]: 2290 ± 77 nM | IC50 [6]: 162 ± 8 nM
